Consider 60 molecules from PMC12040169 (PLOS Biology, 2025).

The first series can be described thus: in vitro. The settings on record: human, hela cells, % viability.
By viability is commonly meant a read-out of living cells in per cent, often relative to untreated cells. Turning to `O=C(Cn1c(-c2cccs2)cc2cccnc21)N1CCCCC1` [CBK282619], the viability at 28.5 h, 10 µM came to 98.1%.

For `O=C(CCn1c(-c2ccncc2)cc2cccnc21)NC1CCCCC1` [CBK282621], the viability at 28.5 h, 10 µM is 87.8%.

Take `O=C(CCn1c(-c2cccnc2)cc2cccnc21)NC1CC1` [CBK282622]: the viability at 28.5 h, 10 µM came out at 95.9%. On the same count and under the same terms, for `Cc1cc2cc(C(=O)NCC3CCCN(C(C)C)C3)ccc2o1` (stereo not drawn) [CBK282625] the value was 105%. On the same count and under the same terms, for `Cc1ccc(C2(CN3CCC(NC(=O)CO)CC3)CCCC2)cc1` [CBK282628] the value was 88.5%. With `CCc1n[nH]c(C(=O)NCC(c2ccc(F)cc2)N2CCCC2)c1C` (stereo not drawn) [CBK282630], the viability at 28.5 h, 10 µM came to 85.8%.

As for `O=C(CCN1Cc2ccccc2C1=O)NCCN1CCc2ccccc21` [CBK282632], the viability at 28.5 h, 10 µM was 97.5%. Same read-out and setting: as for `Cc1cccc(-c2noc(C)c2C(=O)NCCn2ccnc2C)c1` [CBK282633], the figure is 107%. The same measure, in the same setting: for `CN1CCC2(CC1)CC(NC(=O)C1CCCCC1)c1ccccc1O2` (stereo not drawn) [CBK282635] the value was 91.6%; for `COc1ccccc1CCCNC(=O)c1ccc(=O)n(C)c1` [CBK282636], 82.7%. On the same count and under the same terms, for `CC(C)N(C(=O)Cn1nc(-c2cccs2)ccc1=O)C(C)C` [CBK282638] the value was 90%. With `O=C(NCCCc1ccccn1)c1cccc(N2CCCC2=O)c1` [CBK282643], the viability at 28.5 h, 10 µM was determined as 85.9%. Same read-out and setting: as for `Cc1ccn(CCNC(=O)c2cc3cccc(C)c3nc2C)n1` [CBK282645], the figure is 82.3%; as for `CCC(=O)NCCCn1c(-c2cccnc2C)cc2cccnc21` [CBK282646], 90.4%; as for `O=C(CCn1c(-c2cccnc2)cc2cccnc21)NC1CCCCC1` [CBK282647], 85.8%.

As for `Cc1n[nH]cc1CN(CCCn1ccnc1)Cc1cccc(F)c1` [CBK282650], the viability at 28.5 h, 10 µM turned out to be 90.1%. On to `CCC(NC(=O)Cc1c(C)nc(SC)[nH]c1=O)c1ccc(F)cc1` (stereo not drawn) [CBK282653], for which the viability at 28.5 h, 10 µM stood at 81.7%. With `Cn1nc(C2CCCN(C(=O)C3CC3)C2)c2cccnc21` (stereo not drawn) [CBK282654], the viability at 28.5 h, 10 µM was 89.4%.

In the case of `Cc1ccn(CCNC(=O)CCN2Cc3ccccc3C2=O)n1` [CBK282655], the viability at 28.5 h, 10 µM amounted to 86.4%.

On to `CC1(C(=O)NC2CCN(Cc3cccc(F)c3)CC2)CCCO1` (stereo not drawn) [CBK282658], for which the viability at 28.5 h, 10 µM is 91.6%. The same measure, in the same setting: for `CCCn1cc(CN2C3CCC2CC(O)(c2ccccc2F)C3)cn1` (stereo not drawn) [CBK282664] the value was 99.3%; for `CC1CC(C)CN(CCCNC(=O)c2cc(C(C)C)nn2C)C1` (stereo not drawn) [CBK282665], 106%. Consider `C=C(C)CN1CCN(C(=O)c2[nH]c3ccc(OCC)cc3c2C)CC1` [CBK282666], for which the viability at 28.5 h, 10 µM was found to be 96.7%. Same read-out and setting: as for `CC(NC(=O)C1C=CCN1S(C)(=O)=O)c1ccc2c(c1)CCC2` (stereo not drawn) [CBK282667], the figure is 88.7%. For the molecule `CCCC(NC(=O)C1C=CCN1S(C)(=O)=O)c1cccs1` (stereo not drawn) [CBK282668], the viability at 28.5 h, 10 µM was 92.9%. The same measure, in the same setting: as for `CCn1cc(CC(=O)Nc2cccc(-n3cnnc3)c2)c2ccccc21` [CBK282669], the figure is 66.4%; as for `Cc1nccn1CC1(O)CCN(Cc2c[nH]c3ccccc23)CC1` [CBK282671], 82.1%; as for `O=C(c1ccccc1F)N1CCCC(c2n[nH]c3ncccc23)C1` (stereo not drawn) [CBK282672], 101%.

With `Cc1nn(C(C)CC(=O)NCCN2CCc3ccccc32)c(C)c1C` (stereo not drawn) [CBK282675], the viability at 28.5 h, 10 µM amounted to 87.1%. Still for that read-out and setting: for `CC(=O)N1CCc2nc(NC(=O)c3cccs3)sc2C1` [CBK282680] the value was 74.9%; for `O=C(Cn1c(-c2ccco2)cc2cccnc21)N1CCCC1` [CBK282683], 84.8%. On the same count and under the same terms, for `O=C(NCCCc1ccc(F)cc1)c1cccc(N2CCCC2=O)c1` [CBK282684] the value was 88.6%; for `Cc1ncccc1-c1cc2cccnc2n1CCCNC(=O)C1CC1` [CBK282687], 81.5%. Same read-out and setting: for `Cc1ncccc1-c1cc2cccnc2n1CCCNC(=O)C1CC1C` (stereo not drawn) [CBK282688] the value was 101%; for `Cc1ncccc1-c1cc2cccnc2n1CCC(=O)NC1CC1` [CBK282690], 106%.

In the case of `CC(C)(C)NC(=O)CCn1c(-c2cccnc2)cc2cccnc21` [CBK282691], the viability at 28.5 h, 10 µM was 109%. As to `CC1CCCCN1C(=O)CCn1c(-c2cccnc2)cc2cccnc21` (stereo not drawn) [CBK282692], the viability at 28.5 h, 10 µM amounted to 97.1%. Same read-out and setting: for `C=CCN1CCC2(CC1)CN(C(C)=O)Cc1cc(C)ccc1O2` [CBK282693] the value was 97.5%. Still for that read-out and setting: as for `COc1ccccc1CCCNC(=O)CC1CCCCN1C` (stereo not drawn) [CBK282694], the figure is 101%; as for `CCC1CCCCN1CC(=O)N1CCCC1c1nc2ccccc2[nH]1` (stereo not drawn) [CBK282695], 93.5%; as for `CCc1cccc2c(CC(=O)NCCn3ccc(C)n3)c(C)[nH]c12` [CBK282698], 105%. Same read-out and setting: for `Cc1[nH]c2ccc(Cl)cc2c1CC(=O)N(C)CCN(C)C` [CBK282700] the value was 95.5%; for `Cc1nn(C(C)CC(=O)NCC2CCN(C(C)C)CC2)c(C)c1C` (stereo not drawn) [CBK282703], 84.2%.

Consider `C=CCC1(CC=C)CCN1C(=O)c1cccc(N2CCCC2=O)c1` [CBK282709], for which the viability at 28.5 h, 10 µM came out at 85%. Still for that read-out and setting: for `CC1(C(=O)NC(c2ccncc2)c2ccc(Cl)cc2)CCCO1` (stereo not drawn) [CBK282710] the value was 89.5%; for `CC(C)N1CCC(CNC(=O)c2cc3ccccc3c(=O)s2)CC1` [CBK282711], 88.6%; for `C=C(C)CN1CCN(C(=O)CSc2nccc3ccccc23)CC1` [CBK282712], 88.4%. Same read-out and setting: as for `Cc1cc2c(cc1Cl)C(=O)CC1(CCNCC1)O2` [CBK282715], the figure is 83.1%; as for `CC(C)C(=O)N1C[C@@H](N(C)C)[C@H](c2cn(C)c3ccccc23)C1` [CBK282717], 91.2%; as for `Cc1nn(C)cc1CN1CCN(CC2(c3ccccc3)CC2)CC1` [CBK282721], 105%. The same measure, in the same setting: for `NC[C@H]1CC[C@H](C(=O)NCCN2CCc3ccccc32)CC1` [CBK282723] the value was 82.7%.

In the case of `COc1ccc(CC(=O)N(C)CCN2CCCCC2)cc1C` [CBK282728], the viability at 28.5 h, 10 µM stood at 99.3%.

On to `CCn1ncc(S(=O)(=O)Nc2ccc3c(ccn3C)c2)c1C` [CBK282730], for which the viability at 28.5 h, 10 µM came out at 102%. Take `Cc1cc(C)c2c(CC(=O)N(C)CCN(C)C)c(C)[nH]c2c1` [CBK282732]: the viability at 28.5 h, 10 µM stood at 83.6%. On the same count and under the same terms, for `Cc1ccc(C2(O)CCN(Cc3c(C)nc4cc(C)ccn34)CC2)cc1` [CBK282733] the value was 80.5%; for `Cc1ccc(C2(O)CCN(Cc3c(C)nc4sccn34)CC2)cc1` [CBK282734], 85.8%; for `CCCn1cc(CN2CCC(O)(c3ccc(C)cc3)CC2)cn1` [CBK282737], 103%. The same measure, in the same setting: for `C=Cn1ncc(CN2C3CCC2CC(O)(c2ccc(F)cc2)C3)c1C` (stereo not drawn) [CBK282738] the value was 104%; for `Cn1c(=O)n(C)c2cc(CNC3(c4ccccc4)CC3)ccc21` [CBK282746], 87.9%.

Staying with this series, now noted: human, hela cells, % viability, bulk resorufin, single well.
For the molecule `Cc1cccc(CNC(Cc2ccsc2)c2nccs2)n1` (stereo not drawn) [CBK282697], the viability at 28.5 h, 10 µM worked out at 106%.
